Source: ChEMBL document CHEMBL3885881, “DrugMatrix”

Organism: Rattus norvegicus
Test: DrugMatrix - Regimen: Daily Repeat
Type: toxicity, organism-based, Sprague-Dawley
Design: regimen Daily Repeat, gender Male, age 6-8 weeks
Conditions: in vivo, […]; for NEUTROPHIL / PLATELET COUNT / ABSOLUTE BASOPHIL / ABSOLUTE EOSINOPHIL / ABSOLUTE LYMPHOCYTE / ABSOLUTE MONOCYTE / ABSOLUTE SEGMENTED NEUTROPHIL / BASOPHIL / EOSINOPHIL / ERYTHROCYTE COUNT / HEMATOCRIT / HEMOGLOBIN / LEUKOCYTE COUNT / LYMPHOCYTE / MEAN CORPUSCULAR HEMOGLOBIN / MEAN CORPUSCULAR HEMOGLOBIN CONCENTRATION / MEAN CORPUSCULAR VOLUME / MONOCYTE / NUCLEATED RED BLOOD CELLS: tissue Blood; for ALANINE AMINOTRANSFERASE / ALBUMIN / ALKALINE PHOSPHATASE / ASPARTATE AMINOTRANSFERASE / BLOOD UREA NITROGEN / CHLORIDE / CHOLESTEROL / CREATINE PHOSPHOKINASE / CREATININE / GLUCOSE / LACTATE DEHYDROGENASE / LIPASE / PHOSPHORUS / POTASSIUM / TOTAL BILIRUBIN / TOTAL PROTEIN / URIC ACID / SODIUM / CARBON DIOXIDE: tissue Plasma
[1] = ip, 2 mg/kg, route intraperitoneal, dose level High, time 28 day, vehicle 100 % SALINE
[2] = ip, 2 mg/kg, route intraperitoneal, dose level High, time 14 day, vehicle 100 % SALINE
[3] = po, 66 mg/kg, 72 h, route oral GAVAGE, dose level High, time 3 day
[4] = po, 66 mg/kg, 120 h, route oral GAVAGE, dose level High, time 5 day
[5] = po, 72 h, route oral GAVAGE, dose 6.6 mg/Kg, dose level Low, time 3 day
[6] = po, 120 h, route oral GAVAGE, dose 6.6 mg/Kg, dose level Low, time 5 day

Substance: CADMIUM DICHLORIDE
- NEUTROPHIL [1]: 24.62%
- PLATELET COUNT [1]: 1656.44 x10E3/uL
- ALANINE AMINOTRANSFERASE [2]: 35.4 u/L
- ALBUMIN [2]: 3.24 G/DL
- ALKALINE PHOSPHATASE [2]: 169.6 u/L
- ASPARTATE AMINOTRANSFERASE [2]: 182.2 u/L
- BLOOD UREA NITROGEN [2]: 23.8 mg/dL
- CHLORIDE [2]: 109.2 MEQ/L
- CHOLESTEROL [2]: 58.2 mg/dL
- CREATINE PHOSPHOKINASE [2]: 323 u/L
- CREATININE [2]: 0.3 mg/dL
- GLUCOSE [2]: 101 mg/dL
- LACTATE DEHYDROGENASE [2]: 321.4 u/L
- LIPASE [2]: 87.6 u/L
- PHOSPHORUS [2]: 10.28 mg/dL
- POTASSIUM [2]: 6.42 MEQ/L
- TOTAL BILIRUBIN [2]: 0.26 mg/dL
- TOTAL PROTEIN [2]: 5.94 G/DL
- URIC ACID [2]: 2.08 mg/dL
- ALANINE AMINOTRANSFERASE [1]: 39.44 u/L
- ALKALINE PHOSPHATASE [1]: 111 u/L
- ASPARTATE AMINOTRANSFERASE [1]: 167.44 u/L
- BLOOD UREA NITROGEN [1]: 19.67 mg/dL
- CHLORIDE [1]: 108.89 MEQ/L
- CHOLESTEROL [1]: 51.67 mg/dL
- CREATININE [1]: 0.44 mg/dL
- GLUCOSE [1]: 106.78 mg/dL
- LACTATE DEHYDROGENASE [1]: 230.56 u/L
- LIPASE [1]: 45.56 u/L
- POTASSIUM [1]: 6.7 MEQ/L
- SODIUM [1]: 151 MEQ/L
- TOTAL BILIRUBIN [1]: 0.28 mg/dL
- TOTAL PROTEIN [1]: 6.61 G/DL
- URIC ACID [1]: 1.71 mg/dL
- ABSOLUTE BASOPHIL [3]: 0 CELLS/uL
- ABSOLUTE EOSINOPHIL [3]: 54 CELLS/uL
- ABSOLUTE LYMPHOCYTE [3]: 13921.33 CELLS/uL
- ABSOLUTE MONOCYTE [3]: 108.67 CELLS/uL
- ABSOLUTE SEGMENTED NEUTROPHIL [3]: 2549.33 CELLS/uL
- BASOPHIL [3]: 0%
- EOSINOPHIL [3]: 0.33%
- ERYTHROCYTE COUNT [3]: 5.45 x10E6/uL
- HEMATOCRIT [3]: 35.37%
- HEMOGLOBIN [3]: 13.67 G/DL
- LEUKOCYTE COUNT [3]: 16.63 x10E3/uL
- LYMPHOCYTE [3]: 83.67%
- MEAN CORPUSCULAR HEMOGLOBIN [3]: 25.13 pg
- MEAN CORPUSCULAR HEMOGLOBIN CONCENTRATION [3]: 38.63 G/DL
- MEAN CORPUSCULAR VOLUME [3]: 64.97 fL
- MONOCYTE [3]: 0.67%
- NEUTROPHIL [3]: 15.33%
- NUCLEATED RED BLOOD CELLS [3]: 0 /100WBC
- PLATELET COUNT [3]: 1218.67 x10E3/uL
- ALANINE AMINOTRANSFERASE [3]: 57.67 u/L
- ALBUMIN [3]: 4.1 G/DL
- ALKALINE PHOSPHATASE [3]: 436 u/L
- ASPARTATE AMINOTRANSFERASE [3]: 100 u/L
- BLOOD UREA NITROGEN [3]: 12.33 mg/dL
- CARBON DIOXIDE [3]: 25 mmol/L
- CHOLESTEROL [3]: 60.33 mg/dL
- CREATINE PHOSPHOKINASE [3]: 279.67 u/L
- CREATININE [3]: 0.17 mg/dL
- LACTATE DEHYDROGENASE [3]: 310 u/L
- LIPASE [3]: 11.33 u/L
- PHOSPHORUS [3]: 12.93 mg/dL
- POTASSIUM [3]: 7.2 MEQ/L
- TOTAL BILIRUBIN [3]: 0.2 mg/dL
- TOTAL PROTEIN [3]: 5.77 G/DL
- ABSOLUTE BASOPHIL [4]: 0 CELLS/uL
- ABSOLUTE EOSINOPHIL [4]: 0 CELLS/uL
- ABSOLUTE LYMPHOCYTE [4]: 13248 CELLS/uL
- ABSOLUTE MONOCYTE [4]: 120 CELLS/uL
- ABSOLUTE SEGMENTED NEUTROPHIL [4]: 1432 CELLS/uL
- BASOPHIL [4]: 0%
- EOSINOPHIL [4]: 0%
- ERYTHROCYTE COUNT [4]: 5.79 x10E6/uL
- HEMATOCRIT [4]: 35.4%
- HEMOGLOBIN [4]: 14.15 G/DL
- LEUKOCYTE COUNT [4]: 14.8 x10E3/uL
- LYMPHOCYTE [4]: 88%
- MEAN CORPUSCULAR HEMOGLOBIN [4]: 24.55 pg
- MEAN CORPUSCULAR HEMOGLOBIN CONCENTRATION [4]: 39.95 G/DL
- MEAN CORPUSCULAR VOLUME [4]: 61.35 fL
- MONOCYTE [4]: 1%
- NEUTROPHIL [4]: 11%
- NUCLEATED RED BLOOD CELLS [4]: 0 /100WBC
- PLATELET COUNT [4]: 1357 x10E3/uL
- ALANINE AMINOTRANSFERASE [4]: 63 u/L
- ALBUMIN [4]: 4.1 G/DL
- ALKALINE PHOSPHATASE [4]: 217.5 u/L
- ASPARTATE AMINOTRANSFERASE [4]: 122 u/L
- BLOOD UREA NITROGEN [4]: 14 mg/dL
- CARBON DIOXIDE [4]: 18.5 mmol/L
- CHLORIDE [4]: 112 MEQ/L
- CHOLESTEROL [4]: 36 mg/dL
- CREATINE PHOSPHOKINASE [4]: 975 u/L
- CREATININE [4]: 0.2 mg/dL
- GLUCOSE [4]: 189 mg/dL
- LACTATE DEHYDROGENASE [4]: 198.5 u/L
- LIPASE [4]: 11.5 u/L
- POTASSIUM [4]: 6.8 MEQ/L
- TOTAL BILIRUBIN [4]: 0.1 mg/dL
- TOTAL PROTEIN [4]: 5.5 G/DL
- URIC ACID [4]: 2.35 mg/dL
- ABSOLUTE BASOPHIL [5]: 0 CELLS/uL
- ABSOLUTE EOSINOPHIL [5]: 0 CELLS/uL
- ABSOLUTE LYMPHOCYTE [5]: 17172.67 CELLS/uL
- ABSOLUTE MONOCYTE [5]: 193.33 CELLS/uL
- ABSOLUTE SEGMENTED NEUTROPHIL [5]: 1767.33 CELLS/uL
- BASOPHIL [5]: 0%
- EOSINOPHIL [5]: 0%
- ERYTHROCYTE COUNT [5]: 5.25 x10E6/uL
- HEMATOCRIT [5]: 32.93%
- HEMOGLOBIN [5]: 13.07 G/DL
- LEUKOCYTE COUNT [5]: 19.13 x10E3/uL
- MEAN CORPUSCULAR HEMOGLOBIN CONCENTRATION [5]: 39.7 G/DL
- MONOCYTE [5]: 1%
- NUCLEATED RED BLOOD CELLS [5]: 0 /100WBC
- PLATELET COUNT [5]: 1216 x10E3/uL
- ALANINE AMINOTRANSFERASE [5]: 81 u/L
- ALBUMIN [5]: 4 G/DL
- ALKALINE PHOSPHATASE [5]: 508.5 u/L
- ASPARTATE AMINOTRANSFERASE [5]: 91.67 u/L
- BLOOD UREA NITROGEN [5]: 11.67 mg/dL
- CARBON DIOXIDE [5]: 26 mmol/L
- CHOLESTEROL [5]: 77.33 mg/dL
- CREATINE PHOSPHOKINASE [5]: 283.33 u/L
- CREATININE [5]: 0.19 mg/dL
- GLUCOSE [5]: 152.67 mg/dL
- LACTATE DEHYDROGENASE [5]: 195 u/L
- LIPASE [5]: 12.33 u/L
- PHOSPHORUS [5]: 11.57 mg/dL
- POTASSIUM [5]: 6.8 MEQ/L
- TOTAL BILIRUBIN [5]: 0.2 mg/dL
- TOTAL PROTEIN [5]: 5.57 G/DL
- URIC ACID [5]: 1.3 mg/dL
- ABSOLUTE BASOPHIL [6]: 0 CELLS/uL
- ABSOLUTE EOSINOPHIL [6]: 0 CELLS/uL
- ABSOLUTE LYMPHOCYTE [6]: 4729 CELLS/uL
- ABSOLUTE MONOCYTE [6]: 0 CELLS/uL
- ABSOLUTE SEGMENTED NEUTROPHIL [6]: 237.67 CELLS/uL
- BASOPHIL [6]: 0%
- EOSINOPHIL [6]: 0%
- ERYTHROCYTE COUNT [6]: 5.13 x10E6/uL
- HEMATOCRIT [6]: 30.77%
- HEMOGLOBIN [6]: 12.03 G/DL
- LEUKOCYTE COUNT [6]: 4.97 x10E3/uL
- LYMPHOCYTE [6]: 94.67%
- MEAN CORPUSCULAR HEMOGLOBIN [6]: 23.43 pg
- MEAN CORPUSCULAR HEMOGLOBIN CONCENTRATION [6]: 39.13 G/DL
- MONOCYTE [6]: 0%
- NEUTROPHIL [6]: 5.33%
- NUCLEATED RED BLOOD CELLS [6]: 0 /100WBC
- PLATELET COUNT [6]: 996.33 x10E3/uL
- ALANINE AMINOTRANSFERASE [6]: 78.67 u/L
- ALKALINE PHOSPHATASE [6]: 485.67 u/L
- ASPARTATE AMINOTRANSFERASE [6]: 93 u/L
- BLOOD UREA NITROGEN [6]: 12.67 mg/dL
- CARBON DIOXIDE [6]: 30 mmol/L
- CHOLESTEROL [6]: 72.33 mg/dL
- CREATINE PHOSPHOKINASE [6]: 141.33 u/L
- CREATININE [6]: 0.16 mg/dL
- GLUCOSE [6]: 141.33 mg/dL
- LACTATE DEHYDROGENASE [6]: 102.33 u/L
- LIPASE [6]: 11 u/L
- POTASSIUM [6]: 6.24 MEQ/L
- SODIUM [6]: 149.5 MEQ/L
- TOTAL BILIRUBIN [6]: 0.2 mg/dL
- URIC ACID [6]: 0.97 mg/dL
